Measured values published in patent US20250101026A1, “Functionalized Allopurinol Derivatives for Treatment of Alzheimer’s Disease” (BOARD OF REGENTS OF THE UNIVERSITY OF NEBRASKA, priority 2022, published 2025).
Like-named read-outs stand apart in the source and are kept apart here.

Experiments:
Aβ-ABAD PPI = molecular target: T1, Aβ-ABAD PPI (Homo sapiens, UniProt Q99714); assay: Estradiol ELISA assay: rescue of Aβ-induced reduction of estradiol levels in SH-SY5Y cells; assay type: cell-based; settings: compounds 24 hours then Aβ 72 hours
T1 construct: wildtype human SH-SY5Y cell lines, which are known to express ABAD; endogenous in cells; host or cells: SH-SY5Y
T1 sequence (Q99714 2-261 limits assumed): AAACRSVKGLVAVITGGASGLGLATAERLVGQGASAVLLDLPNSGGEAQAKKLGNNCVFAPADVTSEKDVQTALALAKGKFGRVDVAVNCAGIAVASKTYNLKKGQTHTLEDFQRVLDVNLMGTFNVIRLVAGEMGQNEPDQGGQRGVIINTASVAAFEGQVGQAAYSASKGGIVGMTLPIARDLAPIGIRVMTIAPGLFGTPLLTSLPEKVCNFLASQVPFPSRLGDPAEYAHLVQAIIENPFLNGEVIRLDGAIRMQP
Protocol: (§1) Cell Culture. The cell line SH-SY5Y was cultured in DMEM/F12 media supplemented with 10% fetal bovine serum, 1% penicillin-streptomycin and maintained as monolayer cultures in a humidified atmosphere containing 5% CO2 at 37° C.^42 All cell lines were authenticated via short tandem repeat analysis and tested for mycoplasma using the a commercial mycoplasma detection kit as per the manufacturer's instructions, showing no contamination. Where indicated, cells were also cultured in DMEM/low glucose media. All compounds were diluted to 20 mM solution in DMSO and were serially diluted in cell culture media for cell treatments to a final concentration range of 0.01 to 100 μM, maintaining the final DMSO concentration at less than 1%. Positive control compound HupA was serially diluted in a similar fashion as the synthesized compounds.
(§2) Amyloid Preparation. The peptide Aβ1-42, referred to as “Aβ”, was obtained from a commercial source. The oligomers of Aβ were prepared using an established method,^43 Aβ peptide was resuspended in 0.5 mM NaOH at a concentration of […] and stored at −80° C. For use in cell cultures, the stock solution was incubated at 37° C. for 5-7 days. Before use, the peptide was diluted to 25 μM in DMEM/low glucose media.
Estradiol ELISA assay. SH-SY5Y cells were treated with compounds (24 hours), followed by Aβ (72 hours) in a similar fashion to that employed in the cell viability assays, the cell culture medium was collected, and cells were lysed using RIPA buffer and protease inhibitor cocktail, then proteins were quantified via BCA assay. An estradiol assay was performed. In brief, the plate was loaded with samples, along with the estradiol tracer and the specific antiserum to estradiol and incubated for one hour at room temperature. After five washing steps, Ellman's Reagent was added, and the plate developed for 60 minutes with gentle shaking at room temperature. The calculated estradiol concentration was normalized to the total protein content of the samples.
Statistical Analyses. The IC50 values of each compound were acquired from a single experiment with each inhibitor concentration run in triplicate and the statistical significance was calculated using the Student t test, or a one-way or two-way ANOVA. A P value of <0.05 was considered statistically significant. IC50 values were calculated.
To determine the effect of Aβ on estradiol production, and ABAD's role in this process, wildtype human SH-SY5Y cell lines, which are known to express ABAD, were incubated for 72 hours with Aβ.^20 Estradiol levels in the cell lysate were measured with a commercial ELISA-based estradiol assay. […] To determine if AG18051 treatment affects Aβ-induced reduction of estradiol levels, 0.1 or 1 μM AG18051 was preincubated in SH-SY5Y cells for 24 hours prior to Aβ exposure. […] AG18051 at 1 μM protected SH-SY5Y cells from Aβ-induced reduction of estradiol production to a greater significance than HupA. This confirms literature reports that AG18051 is neuroprotective and that it exerts this effect by ameliorating Aβ-induced reduction of estradiol production by ABAD.^20, 23
This assay methodology allows direct screening of compound activity in the presence of Aβ and provides direct evidence of the ability of compounds to rescue Aβ-induced reduction of estradiol production by ABAD. To measure the effect of AG18051 alone in SH-SY5Y cell lines, a 0.01-100 μM dose-response range was tested, and their effect on estradiol levels (FIG. 2B). […] To evaluate the effect of the increase of AG18051 dose in maintaining estradiol levels reduced by Aβ, AG18051 was tested in increasing concentrations in the presence of Aβ (FIG. 2B).

SH-SY5Y cells = assay: Aβ-induced toxicity in SH-SY5Y cells, MTS assay; assay type: cell-based, human; settings: 1 μM
Protocol: as §1, §2
Cell Viability Assays. The SH-SY5Y cells were plated at a density of 50,000 cells/well in 96-well plates and allowed to adapt overnight in a humidified atmosphere containing 5% CO2 at 37° C. The cells were pretreated (24 hours) with the test compound and exchanged to a serum-free DMEM/low glucose media, prior to incubation with 25 μM of Aβ. Cell viability was measured after 48 hours using commercial MTS assay or lactate dehydrogenase (LDH) cytotoxicity assay.
Employing human neuroblastoma SH-SY5Y ‘neuron-like’ cells, known to express ABAD,^20 experimental conditions are described herein that result in reproducible loss of 65% cell viability upon treatment with 25 μM Aβ after 48-hour incubation (FIG. 4A). Compound 1 (AG18051) and its analog 14b were screened for toxic effects in the SH-SY5Y cell lines.
HupA at 10 μM concentration provided 74% protection from Aβ-induced toxicity. […] Again, synthesized compound 14b at 1 μM, afforded greater protection than HupA at 10 μM concentration.

[1] = system: 5XFAD primary cortical neurons; assay: Respiration measurements in 5XFAD cortical neurons; assay type: cell-based, mouse; settings: 10 μM and 50 μM, 48 hours
Protocol: Respiration Measurements (5XFAD cortical neurons). Primary cortical neurons were plated on poly-D-lysine-coated Seahorse XF24 cell culture microplates at a density of 3×10^4 cells/well and cultured for 14 days. At DIV (day in vitro) 12, neurons were treated with indicated compound for 48 hours. On day of the experiment, cells were washed three times and pre-incubated for 1 h in Assay Media with 10 mM Glucose, 1 mM Pyruvate, and 2 mM L-Glutamine. Measurement of intact cellular respiration was performed using an analyzer and a commercial Mito Stress Test Kit. Respiration was measured under basal conditions, and in response to 1.5 μM oligomycin followed by the addition of the […] (FCCP, 1 μM) which induces maximal OCR (Oxygen Consumption Rate). Finally, respiration was stopped by adding the electron transport chain inhibitors rotenone and antimycin A (0.5 μM). Values were normalized to cellular protein levels.
To obtain proof-of-concept protective effect of 14b in an ex vivo mouse model of AD we isolated primary mouse cortical neurons from the 5XFAD Alzheimer's model mouse (FIGS. 6A-6C). 5XFAD neurons were cultured for 10 days and then treated with 14b at 10 or 50 μM for 48 hours and then stained with the mitochondrial outer membrane protein TOM20 to evaluate mitochondrial morphological changes (FIG. 6A). […]

Compound: O=C(C(c1ccccc1)n1cnc2[nH]ncc2c1=S)N1CCC(O)CC1 (centres unmarked) [Compound 14b, 1-(4-hydroxypiperidin-1-yl)-2-phenyl-2-(4-thioxo-1,4-dihydro-5H-pyrazolo[3,4-d]pyrimidin-5-yl)ethan-1-one]
- IC50 (Aβ-ABAD PPI; amelioration of Aβ-induced reduction of estradiol levels, read-out: IC50 (estradiol assay)): 740 nM
- IC50 (Aβ-ABAD PPI; read-out: IC50 (estradiol assay), unit inferred): 738 ± 105 nM
- rescue of Aβ-induced reduction of cell viability (MTS assay) (SH-SY5Y cells): significantly rescued
- protection of cell viability (MTS assay) (SH-SY5Y cells; pretreated 24 hrs, then 25 μM Aβ 48 hrs): 82%
- mitochondrial respiration (oxygen consumption rate) rescue [1]: trend to rescue
